Test results: PubChem BioAssay AID1963420 (Molecular Pharmacology Branch, DTP, NCI, 2024)

Test system: 494315-158-R-J1-PDC complex spheroid growth, percent test/control
Assay: Anticancer human tumor 494315-158-R-J1-PDC patient-derived soft tissue sarcoma cell line growth inhibition [Asc]
Conditions: for IC50: curve of first compound; for viability, T/C: stronger effect = lower value
Description: Multicellular complex tumor spheroid response to apoptosis pathway targeting inhibitors Alrizomadlin, Pelcitoclax, and Dasminapant in combination with a variety of drugs and investigational agents in selected tumor cell lines
The MDM2 inhibitor alrizomadlin, the Bcl-2/Bcl-xL inhibitor pelcitoclax, and the IAPs inhibitor dasminapant were evaluated both individually and in combination with standard of care and investigational anticancer small molecules within a complex spheroid model of solid tumors. . Complex spheroids include a stromal component modeled by human endothelial cells (HUVEC) and fibroblasts modeled by human mesenchymal stem cells (MSCs). The concentration ranges selected for each drug and investigational agent were based upon clinically achievable concentrations if the clinical Cmax of the agent was known.
Compounds. The drugs and investigational agents: alrizomadlin (APG-115; NSC831270), pelcitoclax (APG-1252; NSC835773), dasminapant (APG-1387;NSC834197), TAK-243 (NSC785004), copanlisib (NSC809693), olaparib (NSC753686), talazoparib (NSC767125), cobimetinib (NSC 768068), eltanexor (KPT-8602, NSC 794443), abemaciclib (NSC 768073), sotorasib (NSC818433), adagrasib (NSC 831453), MRTX-1133 (NSC 836407), Iadademestat (ORY1001, NSC 806812), and RMC-4630 (NSC839698), were obtained from the NCI Developmental Therapeutics Program Chemical Repository. The FDA-approved anticancer drug set is available from the Developmental Therapeutics Program at https://dtp.cancer.gov/organization/dscb/obtaining/available plates.htm. […] The stock solutions were prepared in dimethyl sulfoxide (DMSO, Sigma-Aldrich, St. Louis, MO, cat. D2650) at 800-fold the tested concentration and stored at -70 degrees C prior to their use. All drugs and investigational agents were tested over a range starting from a high concentration at or near the clinical Cmax and decreasing in half-log increments. If the clinical Cmax for an agent had not been determined, the highest concentration tested was 10 microM.
The patient-derived cancer (PDC) cell lines include five colon adenocarcinomas: 186277-243-T-J2-PDC, 616215-338-R-J1-PDC, 439559-082-T-J2-PDC, 463943-066-T-J2-PDC, and 519858-162-T-J1-PDC; three pancreatic carcinomas: 323965-272-R-J2-PDC, 521955-158-R6-J3-PDC, and 521955-158-R2-J5-PDC; two uterine sarcomas: 327498-152-R-J2-PDC and 993429-296-R-J1-PDC; two rhabdomyosarcomas: 755483-174-R-J1-PDC and 772245-204-R-J1-PDC; two soft tissue sarcomas: 126254-015-R-J1-PDC and 494315-158-R-J1-PDC; two malignant fibrous histiocytomas: 317291-083-R-J1-PDC and 596521-263-R-J1-PDC; two breast carcinomas: 171881-019-R-J1-PDC and 885512-296-R-J2-PDC; and one ovarian carcinoma: 6556581-035-R-J-PDC were obtained from the NCI PDMR, (https://pdmr.cancer.gov). The established cell lines HSSY-2 synovial sarcoma (RRID:CVCL 8719), SYO-1 synovial sarcoma (RRID:CVCL_7146), MPNST malignant peripheral neural sheath tumor were obtained from the Sloan Kettering Institute. The following established cell lines were purchased from the American Type Culture Collection (ATCC, Manassas, VA), Sor the received from the NCI repository:, PANC-1 pancreatic carcinoma (CRL-1469, RRID:CVCL_0480), OVCAR-5 ovarian carcinoma (RRID:CVCL_1628), OVCAR-8 ovarian carcinoma (RRID:CVCL_1629), , MCF-7 breast carcinoma (CRL-12584, RRID:CVCL_0031), MDA-MB-231 breast carcinoma (CRL-12532, RRID:CVCL_0062), NCI-H1876 small cell lung carcinoma (CRL-5902, RRID:CVCL_1503), NCI-H510A small cell lung carcinoma (HTB-184, RRID:CVCL_1565), NCI-H1417 (CRL-5869, RRID:CVCL_1469), and NCI-H196 small cell lung carcinoma (CRL-5823, RRID:CVCL_1509). Dr. Peter Houghton (Greehey Children's Cancer Research Institute, University of Texas Health Science Center, San Antonio, TX) provided Rh-18 rhabdomyosarcoma (RRID:CVCL_1659). Pooled donor human umbilical vein endothelial cells (HUVEC, Lonza, cat. CC-2519) and human mesenchymal stem cells (hMSC, Lonza, cat. PT-2501) were purchased from Lonza (Walkersville, MD).
Cell Culture. […]

[1] = second compound 0.03 µM, first compound 0.00316 µM
[2] = second compound 0.03 µM, first compound 0.01 µM
[3] = second compound 0.03 µM, first compound 0.0316 µM
[4] = second compound 0.03 µM, first compound 0.1 µM
[5] = second compound 0.0949 µM, first compound 0.00316 µM
[6] = second compound 0.0949 µM, first compound 0.01 µM
[7] = second compound 0.0949 µM, first compound 0.0316 µM
[8] = second compound 0.0949 µM, first compound 0.1 µM
[9] = second compound 0.3 µM, first compound 0.00316 µM
[10] = second compound 0.3 µM, first compound 0.01 µM
[11] = second compound 0.3 µM, first compound 0.0316 µM
[12] = second compound 0.3 µM, first compound 0.1 µM
[13] = second compound 0.949 µM, first compound 0.00316 µM
[14] = second compound 0.949 µM, first compound 0.01 µM
[15] = second compound 0.949 µM, first compound 0.0316 µM
[16] = second compound 0.949 µM, first compound 0.1 µM
[17] = second compound 3 µM, first compound 0.00316 µM
[18] = second compound 3 µM, first compound 0.01 µM
[19] = second compound 3 µM, first compound 0.0316 µM
[20] = second compound 3 µM, first compound 0.1 µM
[21] = second compound 0.03 µM, first compound 0.316 µM
[22] = second compound 0.03 µM, first compound 1 µM
[23] = second compound 0.0949 µM, first compound 0.316 µM
[24] = second compound 0.0949 µM, first compound 1 µM
[25] = second compound 0.3 µM, first compound 0.316 µM
[26] = second compound 0.3 µM, first compound 1 µM
[27] = second compound 0.949 µM, first compound 0.316 µM
[28] = second compound 0.949 µM, first compound 1 µM
[29] = second compound 3 µM, first compound 0.316 µM
[30] = second compound 3 µM, first compound 1 µM
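Further: compound exposure lasted seven days after spheroids formed for three days.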

IC50 (second compound 0.03 µM) | IC50 (second compound 0.0949 µM) | IC50 (second compound 0.3 µM) | IC50 (second compound 0.949 µM) | IC50 (second compound 3 µM) | Structure (SMILES) | viability, T/C [1] | viability, T/C [2] | viability, T/C [3] | viability, T/C [4] | viability, T/C [5] | viability, T/C [6] | viability, T/C [7] | viability, T/C [8] | viability, T/C [9] | viability, T/C [11] | viability, T/C [12] | viability, T/C [15] | viability, T/C [16] | viability, T/C [19] | viability, T/C [20] | further results
> 100 nM | > 100 nM | > 100 nM | > 100 nM | > 100 nM | Cn1ncnc1[C@H]1c2n[nH]c(=O)c3cc(F)cc(c23)N[C@@H]1c1ccc(F)cc1 + CCN1C(C(=O)NC23CCC(C(=O)O)(CC2)CC3)C(c2cccc(Cl)c2F)C2(C(=O)Nc3cc(Cl)ccc32)C12CCCCC2 | 86.8% | 78.9% | 76.3% | 57% | 87.1% | 66.3% | 64.6% | 58.2% | 75.5% | 62.9% | 76.3% | 73.5% | 72.1% | 54.7% | 74.2% | viability, T/C (second compound 0.03 µM, first compound 0.000316 µM): 104%; viability, T/C (second compound 0.03 µM, first compound 0.001 µM): 101%; viability, T/C (second compound 0.0949 µM, first compound 0.000316 µM): 108%; viability, T/C (second compound 0.0949 µM, first compound 0.001 µM): 93.4%; viability, T/C (second compound 0.3 µM, first compound 0.000316 µM): 81.8%; viability, T/C (second compound 0.3 µM, first compound 0.001 µM): 94.3%; viability, T/C [10]: 76.2%; viability, T/C (second compound 0.949 µM, first compound 0.000316 µM): 95.3%; viability, T/C (second compound 0.949 µM, first compound 0.001 µM): 80.1%; viability, T/C [13]: 78.4%; viability, T/C [14]: 64%; viability, T/C (second compound 3 µM, first compound 0.000316 µM): 105%; viability, T/C (second compound 3 µM, first compound 0.001 µM): 92.3%; viability, T/C [17]: 67.9%; viability, T/C [18]: 70.9%
> 10000 nM | > 10000 nM | > 10000 nM | > 10000 nM | > 10000 nM | O=C(c1cc(Cc2n[nH]c(=O)c3ccccc23)ccc1F)N1CCN(C(=O)C2CC2)CC1 + CCN1C(C(=O)NC23CCC(C(=O)O)(CC2)CC3)C(c2cccc(Cl)c2F)C2(C(=O)Nc3cc(Cl)ccc32)C12CCCCC2 | – | – | 97.3% | 109% | – | – | 107% | 107% | – | 97.6% | 103% | 109% | 90.2% | 90.3% | 83.9% | viability, T/C [21]: 94%; viability, T/C [22]: 94.6%; viability, T/C (second compound 0.03 µM, first compound 3.16 µM): 80.4%; viability, T/C (second compound 0.03 µM, first compound 10 µM): 51.2%; viability, T/C [23]: 96.8%; viability, T/C [24]: 93.8%; viability, T/C (second compound 0.0949 µM, first compound 3.16 µM): 74.3%; viability, T/C (second compound 0.0949 µM, first compound 10 µM): 50.4%; viability, T/C [25]: 95.2%; viability, T/C [26]: 79.1%; viability, T/C (second compound 0.3 µM, first compound 3.16 µM): 74.5%; viability, T/C (second compound 0.3 µM, first compound 10 µM): 53%; viability, T/C [27]: 92.5%; viability, T/C [28]: 95.9%; viability, T/C (second compound 0.949 µM, first compound 3.16 µM): 73.9%; viability, T/C (second compound 0.949 µM, first compound 10 µM): 52%; viability, T/C [29]: 85%; viability, T/C [30]: 91.9%; viability, T/C (second compound 3 µM, first compound 3.16 µM): 81.9%; viability, T/C (second compound 3 µM, first compound 10 µM): 51%
> 1000 nM | > 1000 nM | > 1000 nM | > 1000 nM | 795 nM | O=C(c1ccc(F)c(F)c1Nc1ccc(I)cc1F)N1CC(O)([C@@H]2CCCCN2)C1 + CCN1C(C(=O)NC23CCC(C(=O)O)(CC2)CC3)C(c2cccc(Cl)c2F)C2(C(=O)Nc3cc(Cl)ccc32)C12CCCCC2 | 110% | 116% | 121% | 115% | 98% | 90.5% | 110% | 99.2% | 98.9% | 120% | 111% | 137% | 127% | 101% | 112% | viability, T/C [21]: 95.7%; viability, T/C [22]: 61.7%; viability, T/C [23]: 96.6%; viability, T/C [24]: 58.4%; viability, T/C [10]: 114%; viability, T/C [25]: 87.8%; viability, T/C [26]: 51.2%; viability, T/C [13]: 88.4%; viability, T/C [14]: 93.7%; viability, T/C [27]: 97.7%; viability, T/C [28]: 61.3%; viability, T/C [17]: 98.2%; viability, T/C [18]: 102%; viability, T/C [29]: 84.5%; viability, T/C [30]: 41.4%
